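Step 1: Grow cells in 96-well plates. Step 2: Expose to compound for 48 hours at 5 concentrations. Step 3: Interpolate endpoints linearly; if unreached, use highest concentration. The concentration for full growth arrest is given as TGI.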 *1 amine or outer side, *2 acyl side, *3 side chain or, on linkers, in order; H or OH if unused. Where a SMILES comes first, the peptide text is derived from it. The star is where a group is joined. γGlu = O=C(O)[CH](CCC(=O)[*:2])N[*:1]; NHOH = ON*
Columns and labels:
Test in all cases: NCI-60 cell line screen, 48 h
SK-MEL-2 melanoma = system: SK-MEL-2 melanoma
HOP-92 NSCLC = system: HOP-92 NSCLC
NCI-H522 lung = system: NCI-H522 lung
SK-OV-3 ovarian = system: SK-OV-3 ovarian
K-562 leukemia = system: K-562 leukemia
U251 CNS = system: U251 CNS
DU-145 prostate = system: DU-145 prostate
UACC-62 melanoma = system: UACC-62 melanoma
SK-MEL-28 melanoma = system: SK-MEL-28 melanoma
HCC-2998 colon = system: HCC-2998 colon
CAKI-1 renal = system: CAKI-1 renal
KM12 colon = system: KM12 colon
MOLT-4 leukemia = system: MOLT-4 leukemia
UO-31 renal = system: UO-31 renal
COLO 205 colon = system: COLO 205 colon
SF-268 CNS = system: SF-268 CNS
RXF 393 renal = system: RXF 393 renal
OVCAR-8 ovarian = system: OVCAR-8 ovarian
MDA-MB-231 breast = system: MDA-MB-231 breast
EKVX NSCLC = system: EKVX NSCLC
MCF7 breast = system: MCF7 breast
HCT-116 colon = system: HCT-116 colon
CCRF-CEM leukemia = system: CCRF-CEM leukemia
SN12C renal = system: SN12C renal
ACHN renal = system: ACHN renal
UACC-257 melanoma = system: UACC-257 melanoma
PC-3 prostate = system: PC-3 prostate
SF-295 CNS = system: SF-295 CNS
LOX IMVI melanoma = system: LOX IMVI melanoma
786-0 renal = system: 786-0 renal
OVCAR-4 ovarian = system: OVCAR-4 ovarian
SW-620 colon = system: SW-620 colon
IGROV1 ovarian = system: IGROV1 ovarian
M14 melanoma = system: M14 melanoma
SF-539 CNS = system: SF-539 CNS
NCI-H23 lung = system: NCI-H23 lung
SNB-19 CNS = system: SNB-19 CNS
A498 renal = system: A498 renal
TK-10 renal = system: TK-10 renal
SNB-75 CNS = system: SNB-75 CNS
HT29 colon = system: HT29 colon
HL-60(TB) leukemia = system: HL-60(TB) leukemia
RPMI-8226 leukemia = system: RPMI-8226 leukemia
HCT-15 colon = system: HCT-15 colon
NCI/ADR-RES ovarian = system: NCI/ADR-RES ovarian
MDA-MB-435 = system: MDA-MB-435
HOP-62 NSCLC = system: HOP-62 NSCLC
NCI-H226 lung = system: NCI-H226 lung
OVCAR-3 ovarian = system: OVCAR-3 ovarian
BT-549 breast = system: BT-549 breast
SK-MEL-5 melanoma = system: SK-MEL-5 melanoma
OVCAR-5 ovarian = system: OVCAR-5 ovarian
MDA-N = system: MDA-N
A549 NSCLC = system: A549 NSCLC
NCI-H460 lung = system: NCI-H460 lung
T-47D breast = system: T-47D breast
HS 578T breast = system: HS 578T breast
MALME-3M melanoma = system: MALME-3M melanoma

Measured: TGI

NC(CCC(=O)NC(CCC(=O)NO)C(=O)NCC(=O)O)C(=O)O (stereo not given) (γGlu-Glu(NHOH)-Gly-OH; configuration not given here)
not listed: HS 578T breast | MALME-3M melanoma
> 100 µM: all other assays above

CN(C)N1C(=C(C#N)C#N)C(c2ccccc2)CC1C#N (stereo not given)
not listed: OVCAR-4 ovarian | OVCAR-3 ovarian | BT-549 breast | NCI-H460 lung
> 100 µM: all other assays above

Source: PubChem BioAssay (NCI)
